From publication PMC5053523, “In Vitro Antibacterial Activity of Rhodanine Derivatives against Pathogenic Clinical Isolates” (PLoS ONE, 2016)
≈ marks a conversion by molar mass, not a printed value. Where two headings read alike, the source gives them in different places.

Legend:
Format in all cases: cell-based
Pseudomonas aeruginosa [1] = assay: MIC with/without PMBN, Pseudomonas aeruginosa
Outline: (§1)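 Compounds plus sub-inhibitory colistin or PMBN; MIC against Gram-negatives, with control antibiotics in parallel.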

K. pneumoniae = assay: Broth microdilution MIC, K. pneumoniae
Acinetobacter baumannii = assay: MIC with/without PMBN, Acinetobacter baumannii
Outline: as §1

[2] = system: Vancomycin Resistant Staphylococcus aureus (VRSA); assay: Broth microdilution MIC/MBC, VRSA; settings: for MBC / MIC: VRSA
[3] = system: vancomycin resistant enterococci (VRE) E. faecium; assay: Broth microdilution MIC/MBC, VRE E. faecium; settings: for MIC: read-out: MIC
Klebsiella pneumoniae = assay: MIC with/without sub-MIC colistin, Klebsiella pneumoniae
Outline: as §1

[4] = system: vancomycin resistant enterococci (VRE) E. faecalis; assay: Broth microdilution MIC/MBC, VRE E. faecalis; settings: for MIC: read-out: MIC
[5] = system: methicillin-resistant Staphylococcus aureus (MRSA); assay: Broth microdilution MIC/MBC, MRSA
Clostridium difficile = assay: MIC against Clostridium difficile, anaerobic broth dilution; settings: Clostridioides difficile
Outline: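 Clinical C. difficile isolates grown anaerobically 48 h at 37 °C, suspended to 0.5 McFarland and diluted 1:300 in pre-reduced supplemented Brain Heart Infusion broth. Compounds serially diluted; plates incubated anaerobically at 37 °C for 48 h. MIC = lowest concentration with no visible growth.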

Salmonella Typhimurium = assay: MIC with/without PMBN, Salmonella Typhimurium
Outline: as §1

Pseudomonas aeruginosa [6] = assay: MIC with/without sub-MIC colistin, Pseudomonas aeruginosa
Outline: as §1

P. aeruginosa = assay: Broth microdilution MIC, P. aeruginosa; settings: Pseudomonas aeruginosa
B. licheniformis = assay: Broth microdilution MIC/MBC, B. licheniformis; settings: Bacillus licheniformis; for MBC: read-out: MBC; for MIC: read-out: MIC
[7] = E. faecium HM 968 Strain ERV102
[8] = E. faecium NR31914 Strain E0120
[9] = E. faecium Patient #1–1 NR-31903
[10] = E. faecalis NR31972 Strain SF 28073
[11] = NCIB9375, B. licheniformis Gibson 46 (NCIB 9375) NR-2494
[12] = NRS712, B. licheniformis NRS 712 NR-2499

## O=C(O)[C@H](Cc1ccccc1)N1C(=O)/C(=C/c2cccc(OC/C=C/c3ccc(Cl)c(Cl)c3)c2)SC1=S [Rh 6]
Pseudomonas aeruginosa [1]; Pseudomonas aeruginosa ATCC 9721, PMBN (+) 4 μg/mL, read-out: MIC
  MIC: >64 µM
Pseudomonas aeruginosa [1]; Pseudomonas aeruginosa, ATCC9721
  MIC: > 128 µM
K. pneumoniae; K. pneumoniae NR-15417
  MIC: >128 µM
K. pneumoniae; Klebsiella pneumoniae
  MIC: > 128 µM
Acinetobacter baumannii; Acinetobacter baumannii ATCC BAA747, PMBN (+) 4 μg/mL, read-out: MIC
  MIC: >64 µM
Acinetobacter baumannii; Acinetobacter baumannii ATCC BAA19606, PMBN (+) 4 μg/mL, read-out: MIC
  MIC: >64 µM
Acinetobacter baumannii; Acinetobacter baumannii, ATCCBAA747
  MIC: > 128 µM
Acinetobacter baumannii; Acinetobacter baumannii, ATCCBAA19606
  MIC: > 128 µM
[2]; 15 VRSA strains, read-out: MIC 50
  MIC50: 4 µM (≈ 2.28 µg/mL)
[2]; 15 VRSA strains, read-out: MIC 90
  MIC90: 8 µM (≈ 4.56 µg/mL)
[2]; VRSA 1, read-out: MBC
  MBC: > 64 µM
[2]; VRSA 1, read-out: MIC
  MIC: 8 µM (≈ 4.56 µg/mL)
[2]; VRSA 2, read-out: MBC
  MBC: 8 µM (≈ 4.56 µg/mL)
[2]; VRSA 2, read-out: MIC
  MIC: 8 µM (≈ 4.56 µg/mL)
[2]; VRSA 3a, read-out: MBC
  MBC: 8 µM (≈ 4.56 µg/mL)
[2]; VRSA 3a, read-out: MIC
  MIC: 8 µM (≈ 4.56 µg/mL)
[2]; VRSA 3b, read-out: MBC
  MBC: 16 µM (≈ 9.13 µg/mL)
[2]; VRSA 3b, read-out: MIC
  MIC: 8 µM (≈ 4.56 µg/mL)
[2]; VRSA 4, read-out: MBC
  MBC: 8 µM (≈ 4.56 µg/mL)
[2]; VRSA 4, read-out: MIC
  MIC: 4 µM (≈ 2.28 µg/mL)
[2]; VRSA 5, read-out: MBC
  MBC: 16 µM (≈ 9.13 µg/mL)
[2]; VRSA 5, read-out: MIC
  MIC: 4 µM (≈ 2.28 µg/mL)
[2]; VRSA 6, read-out: MBC
  MBC: 32 µM (≈ 18.3 µg/mL)
[2]; VRSA 6, read-out: MIC
  MIC: 4 µM (≈ 2.28 µg/mL)
[2]; VRSA 7, read-out: MBC
  MBC: 8 µM (≈ 4.56 µg/mL)
[2]; VRSA 7, read-out: MIC
  MIC: 8 µM (≈ 4.56 µg/mL)
[2]; VRSA 8, read-out: MBC
  MBC: 16 µM (≈ 9.13 µg/mL)
[2]; VRSA 8, read-out: MIC
  MIC: 4 µM (≈ 2.28 µg/mL)
[2]; VRSA 9, read-out: MBC
  MBC: 16 µM (≈ 9.13 µg/mL)
[2]; VRSA 9, read-out: MIC
  MIC: 8 µM (≈ 4.56 µg/mL)
[2]; VRSA 10, read-out: MBC
  MBC: 16 µM (≈ 9.13 µg/mL)
[2]; VRSA 10, read-out: MIC
  MIC: 4 µM (≈ 2.28 µg/mL)
[2]; VRSA 11a, read-out: MBC
  MBC: 64 µM (≈ 36.5 µg/mL)
[2]; VRSA 11a, read-out: MIC
  MIC: 4 µM (≈ 2.28 µg/mL)
[2]; VRSA 11b, read-out: MBC
  MBC: 32 µM (≈ 18.3 µg/mL)
[2]; VRSA 11b, read-out: MIC
  MIC: 4 µM (≈ 2.28 µg/mL)
[2]; VRSA 12, read-out: MBC
  MBC: 32 µM (≈ 18.3 µg/mL)
[2]; VRSA 12, read-out: MIC
  MIC: 4 µM (≈ 2.28 µg/mL)
[2]; VRSA 13, read-out: MBC
  MBC: 32 µM (≈ 18.3 µg/mL)
[2]; VRSA 13, read-out: MIC
  MIC: 8 µM (≈ 4.56 µg/mL)
[3]; E. faecium E417 HM-965
  MBC: > 64 µM
  MIC: 4 µM (≈ 2.28 µg/mL)
[3]; E. faecium E1071 NR-28978
  MBC: > 64 µM
  MIC: 8 µM (≈ 4.56 µg/mL)
[3]; [7]
  MBC: > 64 µM
  MIC: 8 µM (≈ 4.56 µg/mL)
[3]; [8]
  MBC: 64 µM (≈ 36.5 µg/mL)
  MIC: 8 µM (≈ 4.56 µg/mL)
[3]; [9]
  MBC: > 64 µM
  MIC: 4 µM (≈ 2.28 µg/mL)
Klebsiella pneumoniae; Klebsiella pneumoniae ATCC BAA 2146, colistin (+) […]
  MIC: >64 µM
Klebsiella pneumoniae; Klebsiella pneumoniae, BAA2146
  MIC: > 128 µM
[4]; E. faecalis ERV103 HM-934
  MBC: 16 µM (≈ 9.13 µg/mL)
  MIC: 8 µM (≈ 4.56 µg/mL)
[4]; [10]
  MBC: 16 µM (≈ 9.13 µg/mL)
  MIC: 8 µM (≈ 4.56 µg/mL)
[4]; E. faecalis R712 HM-335
  MBC: 8 µM (≈ 4.56 µg/mL)
  MIC: 4 µM (≈ 2.28 µg/mL)
[4]; E. faecalis S613 HM-334
  MBC: 16 µM (≈ 9.13 µg/mL)
  MIC: 8 µM (≈ 4.56 µg/mL)
[4]; E. faecalis TX0104 HM-201
  MBC: 8 µM (≈ 4.56 µg/mL)
  MIC: 8 µM (≈ 4.56 µg/mL)
[5]; 11 MRSA strains
  MIC50: 4 µM (≈ 2.28 µg/mL)
  MIC90: 8 µM (≈ 4.56 µg/mL)
[5]; MRSA NRS 1
  MBC: 8 µM (≈ 4.56 µg/mL)
  MIC: 8 µM (≈ 4.56 µg/mL)
[5]; MRSA NRS 19
  MBC: 8 µM (≈ 4.56 µg/mL)
  MIC: 8 µM (≈ 4.56 µg/mL)
[5]; MRSA NRS 37
  MBC: 16 µM (≈ 9.13 µg/mL)
  MIC: 8 µM (≈ 4.56 µg/mL)
[5]; MRSA NRS 107
  MBC: 8 µM (≈ 4.56 µg/mL)
  MIC: 8 µM (≈ 4.56 µg/mL)
[5]; MRSA NRS 119
  MBC: 4 µM (≈ 2.28 µg/mL)
  MIC: 4 µM (≈ 2.28 µg/mL)
[5]; MRSA NRS 382
  MBC: 16 µM (≈ 9.13 µg/mL)
  MIC: 4 µM (≈ 2.28 µg/mL)
[5]; MRSA NRS 383
  MBC: 8 µM (≈ 4.56 µg/mL)
  MIC: 4 µM (≈ 2.28 µg/mL)
[5]; MRSA NRS 384
  MBC: 4 µM (≈ 2.28 µg/mL)
  MIC: 4 µM (≈ 2.28 µg/mL)
[5]; MRSA NRS 385
  MBC: 4 µM (≈ 2.28 µg/mL)
  MIC: 4 µM (≈ 2.28 µg/mL)
[5]; MRSA NRS 386
  MBC: 32 µM (≈ 18.3 µg/mL)
  MIC: 4 µM (≈ 2.28 µg/mL)
[5]; MRSA NRS 387
  MBC: 8 µM (≈ 4.56 µg/mL)
  MIC: 4 µM (≈ 2.28 µg/mL)
Clostridium difficile; C. difficile HM-88
  MIC: 4 µM (≈ 2.28 µg/mL)
Clostridium difficile; C. difficile HM-745
  MIC: 4 µM (≈ 2.28 µg/mL)
Clostridium difficile; C. difficile HM-746
  MIC: 2 µM (≈ 1.14 µg/mL)
Clostridium difficile; C. difficile Isolate-1 NR-13427
  MIC: 4 µM (≈ 2.28 µg/mL)
Clostridium difficile; C. difficile Toxigenic Strain P8 NR-32888
  MIC: 8 µM (≈ 4.56 µg/mL)
Salmonella Typhimurium; Salmonella Typhimurium ATCC 700720, PMBN (+) 4 μg/mL, read-out: MIC
  MIC: >128 µM
Salmonella Typhimurium; Salmonella enterica, ATCC 700720 / TYPHIMURIUM
  MIC: > 128 µM
Pseudomonas aeruginosa [6]; Pseudomonas aeruginosa ATCC 921, colistin (+) […], read-out: MIC
  MIC: >64 µM
Pseudomonas aeruginosa [6]; Pseudomonas aeruginosa, ATCC921
  MIC: > 128 µM
P. aeruginosa; ATCC9721
  MIC: > 128 µM
P. aeruginosa; ATCC15442
  MIC: > 128 µM
B. licheniformis; [11]
  MBC: 4 µM (≈ 2.28 µg/mL)
  MIC: 4 µM (≈ 2.28 µg/mL)
B. licheniformis; [12]
  MBC: 4 µM (≈ 2.28 µg/mL)
  MIC: 4 µM (≈ 2.28 µg/mL)
